Measured values taken from patent US8546579B2, “Bicycloheteroaryl compounds as P2X7 modulators and uses thereof” (Evotec (US) Inc., priority 2006, dated 2013).

biological target: T1, P2X7 receptor (Homo sapiens, UniProt Q99572); assay: IL-1β release assay in differentiated THP-1 cells stimulated with BzATP (Example 9); assay type: cell-based; set-up: inhibition: dose or concentration left out as unconfirmed; settings: 0.1 μM compound; differentiated THP-1 cells, BzATP 250 uM; "*" class symbols; read-out: IL-1β % Inhib. ("*" symbols: at 0.1 μM)
T1 construct: host or cells: THP-1 cells differentiated with LPS and IFN-γ
T1 sequence (Q99572 1-595): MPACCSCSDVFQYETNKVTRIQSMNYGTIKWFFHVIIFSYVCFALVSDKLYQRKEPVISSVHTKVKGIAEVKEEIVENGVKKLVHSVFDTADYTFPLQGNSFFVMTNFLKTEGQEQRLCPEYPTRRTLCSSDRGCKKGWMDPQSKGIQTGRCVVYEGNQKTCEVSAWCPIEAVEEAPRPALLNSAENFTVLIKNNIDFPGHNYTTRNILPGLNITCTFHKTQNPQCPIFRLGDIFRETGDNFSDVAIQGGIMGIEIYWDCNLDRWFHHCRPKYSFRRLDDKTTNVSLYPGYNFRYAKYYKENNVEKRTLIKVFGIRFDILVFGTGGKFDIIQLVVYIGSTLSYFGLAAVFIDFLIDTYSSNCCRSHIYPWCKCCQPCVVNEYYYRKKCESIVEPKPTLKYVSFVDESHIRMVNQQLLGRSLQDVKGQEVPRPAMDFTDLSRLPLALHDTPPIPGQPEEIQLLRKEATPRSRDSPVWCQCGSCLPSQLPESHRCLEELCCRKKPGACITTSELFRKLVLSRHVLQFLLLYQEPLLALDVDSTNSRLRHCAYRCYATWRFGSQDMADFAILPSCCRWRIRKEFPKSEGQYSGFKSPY
Summary of the method: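 IC50 derived by four-parameter logistic fit of percent inhibition of IL-1β release, measured by ELISA after 45 min stimulation with 250 uM BzATP. Cells: THP-1 differentiated 16 h with 100 ng/mL LPS plus IFN-γ, LPS-primed 2 h, compound added 30 min beforehand.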

Row | inhibition at 0.1 µM [%] | SMILES
1 | 0 to 25 | O=C(Nc1cccc2c(=O)n(Cc3ccc(OC(F)(F)F)cc3)ccc12)C1C[C@@H]2CC[C@H]1C2 (some centres unmarked) [Compound 1600]
2 | 0 to 25 | Cc1ccc(CCC(=O)Nc2cccc3c(=O)n(Cc4ccc(OC(F)(F)F)cc4)ccc23)c(C)c1 [Compound 1609]

same assay, conditions: 0.1 μM compound; differentiated THP-1 cells, BzATP 250 uM; '*' class symbols; read-out: IL-1β % Inhib. (asterisk classes, 0.1 μM)

Row | inhibition at 0.1 µM [%] | SMILES
3 | 0 to 25 | COc1ccc(C(=O)Nc2cccc3c(=O)n(CCN4CCOCC4)ccc23)c(C)c1 [Compound 1039]

same assay, conditions: 0.1 μM compound; differentiated THP-1 cells, BzATP 250 uM; symbols * to ****; read-out: IL-1β % Inhib. (asterisk symbols: at 0.1 μM)

Row | inhibition at 0.1 µM [%] | SMILES
4 | 0 to 25 | COc1ccc(C(=O)Nc2cccc3c(=O)n(CC4CCOCC4)ccc23)c(C)c1 [Compound 1394]

same assay, conditions: 0.3 μM compound; differentiated THP-1 cells, BzATP 250 uM; "+" class symbols; read-out: IL-1β % Inhib. @ 0.3 μM

Row | inhibition at 0.3 µM [%] | SMILES
5 | 26 to 50 | CC(=O)OCCn1ccc2c(NC(=O)Cc3ccc(C(F)(F)F)cc3C(F)(F)F)cccc2c1=O [Compound 1617]

same assay, conditions: 0.3 μM compound; differentiated THP-1 cells, BzATP 250 uM; '+' class symbols; read-out: IL-1β % Inhib. @ 0.3 μM

Row | inhibition at 0.3 µM [%] | SMILES
6 | 0 to 25 | COc1ccc(CC(=O)Nc2cccc3c(=O)n(CCN(C)C)ccc23)cc1OC [Compound 1158]
7 | 0 to 25 | CCOc1ccccc1CC(=O)Nc1cccc2c(=O)n(CCN(C)C)ccc12 [Compound 1177]
8 | 0 to 25 | CN(C)CCn1ccc2c(NC(=O)CCc3ccccc3Cl)cccc2c1=O [Compound 1037]
9 | 0 to 25 | Cc1ccccc1CC(=O)Nc1cccc2c(=O)n(CCN(C)C)ccc12 [Compound 1157]
10 | 0 to 25 | Cc1cccc(CC(=O)Nc2cccc3c(=O)n(CCN(C)C)ccc23)c1 [Compound 1159]
11 | 0 to 25 | COc1cccc(CCC(=O)Nc2cccc3c(=O)n(C)ccc23)c1 [Compound 1058]
12 | 0 to 25 | CCC(C(=O)Nc1cccc2c(=O)n(CCN(C)C)ccc12)c1ccccc1 (centres unmarked) [Compound 1020]
13 | 0 to 25 | Cc1cccc(CC(=O)Nc2cccc3c(=O)n(CC4CCOCC4)ccc23)c1 [Compound 1104]
14 | 0 to 25 | CN(C)CCn1ccc2c(NC(=O)c3ccccc3)cccc2c1=O [Compound 1006, N-[2-(2-Dimethylamino-ethyl)-1-oxo-1,2-dihydro-isoquinolin-5-yl]-benzamide]

Second part, the compound before the results:

Row | SMILES | inhibition at 0.3 µM [%]
15 | O=C(Nc1cccc2c(=O)n(CC3CCOCC3)ccc12)[C@]12C[C@@H]3CC1C[C@@H](C3)C2 [Compound 1116] | 0 to 25
16 | Cc1ccc(C(=O)Nc2cccc3c(=O)n(CC4CCOCC4)ccc23)cc1Cl [Compound 1113] | 0 to 25
17 | CCOc1cccc(C(=O)Nc2cccc3c(=O)n(CC4CCOCC4)ccc23)c1 [Compound 1030] | 0 to 25
18 | CN(C)CCn1ccc2c(NC(=O)[C@@]34C[C@@H]5C[C@@H](C[C@@H]3C5)C4)cccc2c1=O [Compound 1168] | 0 to 25
19 | Cc1cc(C)c(CC(=O)Nc2cccc3c(=O)n(CCN(C)C)ccc23)c(C)c1 [Compound 1036] | 0 to 25
20 | O=C(Nc1cccc2c(=O)n(CC3CCOCC3)ccc12)c1cc(Cl)ccc1Cl [Compound 1084] | 0 to 25
21 | Cc1cc(Cl)ccc1C(=O)Nc1cccc2c(=O)n(CC3CCOCC3)ccc12 [Compound 1114] | 0 to 25
22 | Cc1ccc(CC(=O)Nc2cccc3c(=O)n(CC4CCOCC4)ccc23)cc1 [Compound 1107] | 0 to 25

same assay, conditions: 0.3 μM compound; differentiated THP-1 cells, BzATP 250 uM; symbols + to ++++; read-out: IL-1β % Inhib. @ 0.3 μM

Row | inhibition at 0.3 µM [%] | SMILES
23 | 0 to 25 | COCCn1ccc2c(NC(=O)CCc3cccc(Cl)c3)cccc2c1=O [Compound 1342]
24 | 0 to 25 | O=C(CCCc1ccccc1)Nc1cccc2c(=O)n(Cc3cccnc3)ccc12 [Compound 1357]
25 | 0 to 25 | CC(C)(C)Cn1ccc2c(NC(=O)Cc3csc4ccccc34)cccc2c1=O [Compound 1274]
26 | 0 to 25 | COc1ccc(OC)c(CC(=O)Nc2cccc3c(=O)n(CCN4CCOCC4)ccc23)c1 [Compound 1207]
27 | 0 to 25 | COc1ccccc1CC(=O)Nc1cccc2c(=O)n(C)ccc12 [Compound 1295]
28 | 0 to 25 | COc1ccccc1CC(=O)Nc1cccc2c(=O)n(CCN3CCOCC3)ccc12 [Compound 1206]

More lines, now with the values behind:

Row | SMILES | inhibition at 0.3 µM [%]
29 | COCCn1ccc2c(NC(=O)c3ccc(CC(C)C)cc3)cccc2c1=O [Compound 1343] | 0 to 25
30 | COc1ccc(CC(=O)Nc2cccc3c(=O)n(CC(C)(C)C)ccc23)cc1C [Compound 1281] | 26 to 50
31 | CC(C)Cc1ccc(C(=O)Nc2cccc3c(=O)n(CC(C)(C)C)ccc23)cc1 [Compound 1288] | 0 to 25
32 | Cc1cccc(C(=O)Nc2cccc3c(=O)n(Cc4cccnc4)ccc23)c1C [Compound 1345] | 0 to 25
33 | O=C(CC1CCCCCC1)Nc1cccc2c(=O)n(CC3CCOCC3)ccc12 [Compound 1373, 2-Cycloheptyl-N-[1-oxo-2-(tetrahydro-pyran-4-ylmethyl)-1,2-dihydro-isoquinolin-5-yl]-acetamide] | ≥ 76
34 | CC(C(=O)Nc1cccc2c(=O)n(CCN(C)C)ccc12)c1ccc(Cl)cc1 (centres unmarked) [Compound 1391] | ≥ 76

same assay, conditions: THP-1; read-out: IL-1β % Inhib.

Row | inhibition [%] | SMILES
35 | 0 to 25 | COc1ccc(CCC(=O)Nc2cccc3c(=O)n(CC4CCN(C)CC4)ccc23)cc1 [Compound 1468]
36 | 0 to 25 | COc1ccc(C(=O)Nc2cccc3c(=O)n(CCCN4CCCC4=O)ccc23)c(C)c1 [Compound 1493]
37 | 0 to 25 | CC(C)(C)c1ccc(C(=O)Nc2cccc3c(=O)n(CCCN4CCCC4=O)ccc23)cc1 [Compound 1516]
38 | 0 to 25 | O=C(Nc1cccc2c(=O)n(CCCN3CCCC3=O)ccc12)c1cc2cc(Cl)ccc2o1 [Compound 1543]
39 | 0 to 25 | Cc1ccc(C)c(CC(=O)Nc2cccc3c(=O)n(CCN(C)C)ccc23)c1 [Compound 1401]
40 | 0 to 25 | CN1CCC(Cn2ccc3c(NC(=O)CCc4cccc(Cl)c4)cccc3c2=O)CC1 [Compound 1492]
41 | 0 to 25 | Cc1ccccc1CCC(=O)Nc1cccc2c(=O)n(CCCN3CCCC3=O)ccc12 [Compound 1495]
42 | 0 to 25 | COc1ccccc1CCC(=O)Nc1cccc2c(=O)n(CCCN3CCCC3=O)ccc12 [Compound 1518]

Second part, the compound before the results:

Row | SMILES | inhibition [%]
43 | CCOc1ccc(C(=O)Nc2cccc3c(=O)n(Cc4cccnc4)ccc23)cc1 [Compound 1444] | 0 to 25
44 | Cc1cc(Cl)ccc1C(=O)Nc1cccc2c(=O)n(Cc3ccc(OC(F)(F)F)cc3)ccc12 [Compound 1592] | 0 to 25
45 | Cc1cc(C)cc(CC(=O)Nc2cccc3c(=O)n(CC4CCN(C)CC4)ccc23)c1 [Compound 1482] | 26 to 50
46 | C[C@H]1CC[C@H](C(=O)Nc2cccc3c(=O)n(Cc4ccc(OC(F)(F)F)cc4)ccc23)CC1 [Compound 1549] | 0 to 25
47 | COc1ccc(C(=O)Nc2cccc3c(=O)n(CCN(C)C)ccc23)c(C)c1 [Compound 1398] | 0 to 25
48 | COc1cc(CC(=O)Nc2cccc3c(=O)n(Cc4ccc(OC(F)(F)F)cc4)ccc23)cc(OC)c1 [Compound 1589] | 0 to 25
49 | COCCn1ccc2c(NC(=O)c3cccc(C)c3)cccc2c1=O [Compound 1428] | 0 to 25
50 | O=C(Nc1cccc2c(=O)n(CCN3CCOCC3)ccc12)c1ccc2ccccc2c1 [Compound 1411] | 0 to 25
51 | COc1ccc(CCC(=O)Nc2cccc3c(=O)n(Cc4ccc(OC(F)(F)F)cc4)ccc23)cc1 [Compound 1572] | 0 to 25
52 | CCOc1ccc(C(=O)Nc2cccc3c(=O)n(CC(C)(C)C)ccc23)cc1 [Compound 1415] | 0 to 25
53 | COc1ccc(OC)c(CC(=O)Nc2cccc3c(=O)n(CC4CCN(C)CC4)ccc23)c1 [Compound 1472] | 0 to 25
54 | Cc1ccc(C)c(C(=O)Nc2cccc3c(=O)n(C)ccc23)c1 [Compound 1420] | 0 to 25

same assay, conditions: THP-1 cells, BzATP-stimulated IL-1β release, four parameter logistic fit

Row | IC50 [nM] | SMILES
55 | > 1000 | CCC(C(=O)Nc1cccc2c(=O)n(CCN(C)C)ccc12)c1ccccc1 (centres unmarked) [Compound 1020]
56 | 99.2 | CN(C)CCn1ccc2c(NC(=O)c3ccccc3)cccc2c1=O [Compound 1006, N-[2-(2-Dimethylamino-ethyl)-1-oxo-1,2-dihydro-isoquinolin-5-yl]-benzamide]

Second part, the compound before the results:

Row | SMILES | IC50 [nM]
57 | O=C(CC1CCCCCC1)Nc1cccc2c(=O)n(CC3CCOCC3)ccc12 [Compound 1373, 2-Cycloheptyl-N-[1-oxo-2-(tetrahydro-pyran-4-ylmethyl)-1,2-dihydro-isoquinolin-5-yl]-acetamide] | 72.1
58 | CC(C(=O)Nc1cccc2c(=O)n(CCN(C)C)ccc12)c1ccc(Cl)cc1 (centres unmarked) [Compound 1391] | 45.7
59 | CC(=O)OCCn1ccc2c(NC(=O)Cc3ccc(C(F)(F)F)cc3C(F)(F)F)cccc2c1=O [Compound 1617] | 417
